# Results published in the supplement of paper PMC6045584.
# ± gives the standard deviation of the averaged measurements.
# Key:
# CELECOXIB [1] = compound: T1, Cc1ccc(-c2cc(C(F)(F)F)nn2-c2ccc(S(N)(=O)=O)cc2)cc1 [CELECOXIB]; assay: surviving fraction relative to DMSO-only wells; higher = less growth inhibition; conditions: exposure time: 5 days
# How it was run: (§1)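 Tumour cell lines in log phase were plated in 384-well plates at 250–500 cells per well, then, after 24 hours, exposed continuously for five days to inhibitors at 0.5, 1, 5, 10, 50, 100, 500 and 1000 nM. Viability came from CellTiter-Glo luminescence, and surviving fraction is that signal normalised to the median of DMSO-only wells. Plates were read after 10 minutes at room temperature, and each line, screened three times, was kept only when replicate Pearson r was >0.7 and median Z' was >0.3.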
# GEFITINIB [2] = compound: T2, COc1cc2ncnc(Nc3ccc(F)c(Cl)c3)c2cc1OCCCN1CCOCC1 [GEFITINIB]; assay: as above; conditions: exposure time: 5 days
# How it was run: as §1
# [3] = compound: CC(=O)NCC(=O)N1[C@@H]2CC[C@H]1c1ccc(Nc3ncc(C(F)(F)F)c(NC4CCC4)n3)cc12; assay: as above; conditions: exposure time: 5 days
# How it was run: as §1
# CARBOPLATIN [4] = compound: T3, O=C(O)C1(C(=O)O)CCC1.[NH2-].[NH2-].[Pt+2] [CARBOPLATIN]; assay: as above; conditions: exposure time: 5 days
# How it was run: as §1
# PACLITAXEL [5] = compound: T4, CC(=O)O[C@H]1C(=O)[C@@]2(C)[C@H]([C@H](OC(=O)c3ccccc3)[C@]3(O)C[C@H](OC(=O)[C@H](O)[C@@H](NC(=O)c4ccccc4)c4ccccc4)C(C)=C1C3(C)C)[C@]1(OC(C)=O)CO[C@@H]1C[C@@H]2O [PACLITAXEL]; assay: as above; conditions: exposure time: 5 days
# How it was run: as §1
# YM155 [6] = compound: T5, COCC[n+]1c2c(n(Cc3cnccn3)c1C)C(=O)c1ccccc1C2=O [YM155]; assay: as above; conditions: exposure time: 5 days
# How it was run: as §1
# CAMPTOTHECIN [7] = compound: T6, CC[C@@]1(O)C(=O)OCc2c1cc1n(c2=O)Cc2cc3ccccc3nc2-1 [CAMPTOTHECIN]; assay: as above; conditions: exposure time: 5 days
# How it was run: as §1
# OSI-906 [8] = compound: T7, C[C@]1(O)C[C@@H](c2nc(-c3ccc4ccc(-c5ccccc5)nc4c3)c3c(N)nccn32)C1 [OSI-906]; assay: as above; conditions: exposure time: 5 days
# How it was run: as §1
# [9] = compound: CC(=O)c1c(C)c2cnc(Nc3ccc(N4CCNCC4)cn3)nc2n(C2CCCC2)c1=O; assay: as above; conditions: exposure time: 5 days
# How it was run: as §1
# CELECOXIB [10] = compound: T1, CELECOXIB; assay: area under dose-response curve of surviving fraction (unscaled, Aref=0) (surviving fraction x log10(nM)); higher = more resistant; conditions: exposure time: 5 days; dose range 0.5-1000 nM
# How it was run: (§2)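 Surviving fractions were fitted by 3-parameter logistic regression in the drc R package to give dose-response survival curves. They came from tumour cell lines treated for five days with eight inhibitor concentrations from 0.5 to 1000 nM and read by CellTiter-Glo luminescence against DMSO-only wells. The area under the curve is the unscaled activity area. It was calculated over log10 dose with Aref = 0.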
# GEFITINIB [11] = compound: T2, GEFITINIB; assay: as above; conditions: exposure time: 5 days; dose range 0.5-1000 nM
# How it was run: as §2
# [12] = compound: CC(=O)NCC(=O)N1[C@@H]2CC[C@H]1c1ccc(Nc3ncc(C(F)(F)F)c(NC4CCC4)n3)cc12; assay: as above; conditions: exposure time: 5 days; dose range 0.5-1000 nM
# How it was run: as §2
# CARBOPLATIN [13] = compound: T3, CARBOPLATIN; assay: as above; conditions: exposure time: 5 days; dose range 0.5-1000 nM
# How it was run: as §2
# PACLITAXEL [14] = compound: T4, PACLITAXEL; assay: as above; conditions: exposure time: 5 days; dose range 0.5-1000 nM
# How it was run: as §2
# YM155 [15] = compound: T5, YM155; assay: as above; conditions: exposure time: 5 days; dose range 0.5-1000 nM
# How it was run: as §2
# CAMPTOTHECIN [16] = compound: T6, CAMPTOTHECIN; assay: as above; conditions: exposure time: 5 days; dose range 0.5-1000 nM
# How it was run: as §2
# OSI-906 [17] = compound: T7, OSI-906; assay: as above; conditions: exposure time: 5 days; dose range 0.5-1000 nM
# How it was run: as §2
# [18] = compound: CC(=O)c1c(C)c2cnc(Nc3ccc(N4CCNCC4)cn3)nc2n(C2CCCC2)c1=O; assay: as above; conditions: exposure time: 5 days; dose range 0.5-1000 nM
# How it was run: as §2
test system,measurement,setting,value
DU4475 BREAST,surviving fraction,CELECOXIB [1]; 0.5 nM,0.894 ± 0.08
same,surviving fraction,CELECOXIB [1]; 1 nM,0.836 ± 0.06
same,surviving fraction,CELECOXIB [1]; 5 nM,0.943 ± 0.095
same,surviving fraction,CELECOXIB [1]; 10 nM,0.937 ± 0.014
same,surviving fraction,CELECOXIB [1]; 50 nM,0.876 ± 0.051
same,surviving fraction,CELECOXIB [1]; 100 nM,0.892 ± 0.12
same,surviving fraction,CELECOXIB [1]; 500 nM,0.973 ± 0.18
same,surviving fraction,CELECOXIB [1]; 1000 nM,0.872 ± 0.015
same,surviving fraction,GEFITINIB [2]; 0.5 nM,0.921 ± 0.068
same,surviving fraction,GEFITINIB [2]; 1 nM,0.955 ± 0.045
same,surviving fraction,GEFITINIB [2]; 5 nM,0.82 ± 0.095
same,surviving fraction,GEFITINIB [2]; 10 nM,0.914 ± 0.01
same,surviving fraction,GEFITINIB [2]; 50 nM,0.879 ± 0.14
same,surviving fraction,GEFITINIB [2]; 100 nM,0.906 ± 0.16
same,surviving fraction,GEFITINIB [2]; 500 nM,1.01 ± 0.1
same,surviving fraction,GEFITINIB [2]; 1000 nM,0.889 ± 0.069
same,surviving fraction,[3]; 0.5 nM,0.776 ± 0.12
same,surviving fraction,[3]; 1 nM,0.802 ± 0.15
same,surviving fraction,[3]; 5 nM,0.821 ± 0.16
same,surviving fraction,[3]; 10 nM,0.783 ± 0.2
same,surviving fraction,[3]; 50 nM,0.49 ± 0.36
same,surviving fraction,[3]; 100 nM,0.131 ± 0.097
same,surviving fraction,[3]; 500 nM,0.0413 ± 0.016
same,surviving fraction,[3]; 1000 nM,0.0397 ± 0.0038
same,surviving fraction,CARBOPLATIN [4]; 0.5 nM,1.03 ± 0.064
same,surviving fraction,CARBOPLATIN [4]; 1 nM,0.931 ± 0.032
same,surviving fraction,CARBOPLATIN [4]; 5 nM,1.08 ± 0.23
same,surviving fraction,CARBOPLATIN [4]; 10 nM,1.04 ± 0.089
same,surviving fraction,CARBOPLATIN [4]; 50 nM,0.909 ± 0.029
same,surviving fraction,CARBOPLATIN [4]; 100 nM,0.975 ± 0.18
same,surviving fraction,CARBOPLATIN [4]; 500 nM,0.895 ± 0.06
same,surviving fraction,CARBOPLATIN [4]; 1000 nM,1.03 ± 0.035
same,surviving fraction,PACLITAXEL [5]; 0.5 nM,0.975 ± 0.17
same,surviving fraction,PACLITAXEL [5]; 1 nM,0.946 ± 0.26
same,surviving fraction,PACLITAXEL [5]; 5 nM,0.243 ± 0.069
same,surviving fraction,PACLITAXEL [5]; 10 nM,0.129 ± 0.021
same,surviving fraction,PACLITAXEL [5]; 50 nM,0.0387 ± 0.013
same,surviving fraction,PACLITAXEL [5]; 100 nM,0.044 ± 0.0089
same,surviving fraction,PACLITAXEL [5]; 500 nM,0.0463 ± 0.02
same,surviving fraction,PACLITAXEL [5]; 1000 nM,0.035 ± 0.0085
same,surviving fraction,YM155 [6]; 0.5 nM,0.934 ± 0.11
same,surviving fraction,YM155 [6]; 1 nM,0.805 ± 0.044
same,surviving fraction,YM155 [6]; 5 nM,0.839 ± 0.08
same,surviving fraction,YM155 [6]; 10 nM,0.903 ± 0.21
same,surviving fraction,YM155 [6]; 50 nM,0.108 ± 0.025
same,surviving fraction,YM155 [6]; 100 nM,0.0437 ± 0.008
same,surviving fraction,YM155 [6]; 500 nM,0.0273 ± 0.0015
same,surviving fraction,YM155 [6]; 1000 nM,0.0337 ± 0.0038
same,surviving fraction,CAMPTOTHECIN [7]; 0.5 nM,0.759 ± 0.11
same,surviving fraction,CAMPTOTHECIN [7]; 1 nM,0.643 ± 0.064
same,surviving fraction,CAMPTOTHECIN [7]; 5 nM,0.28 ± 0.055
same,surviving fraction,CAMPTOTHECIN [7]; 10 nM,0.135 ± 0.018
same,surviving fraction,CAMPTOTHECIN [7]; 50 nM,0.0357 ± 0.0042
same,surviving fraction,CAMPTOTHECIN [7]; 100 nM,0.0227 ± 0.0045
same,surviving fraction,CAMPTOTHECIN [7]; 500 nM,0.0217 ± 0.0015
same,surviving fraction,CAMPTOTHECIN [7]; 1000 nM,0.0247 ± 0.0025
same,surviving fraction,OSI-906 [8]; 0.5 nM,0.863 ± 0.18
same,surviving fraction,OSI-906 [8]; 1 nM,0.825 ± 0.18
same,surviving fraction,OSI-906 [8]; 5 nM,0.726 ± 0.089
same,surviving fraction,OSI-906 [8]; 10 nM,0.786 ± 0.12
same,surviving fraction,OSI-906 [8]; 50 nM,0.785 ± 0.18
same,surviving fraction,OSI-906 [8]; 100 nM,0.553 ± 0.043
same,surviving fraction,OSI-906 [8]; 500 nM,0.41 ± 0.024
same,surviving fraction,OSI-906 [8]; 1000 nM,0.36 ± 0.08
same,surviving fraction,[9]; 0.5 nM,1.11 ± 0.15
same,surviving fraction,[9]; 1 nM,1.23 ± 0.076
same,surviving fraction,[9]; 5 nM,1.08 ± 0.17
same,surviving fraction,[9]; 10 nM,1.08 ± 0.31
same,surviving fraction,[9]; 50 nM,1.03 ± 0.3
same,surviving fraction,[9]; 100 nM,0.997 ± 0.36
same,surviving fraction,[9]; 500 nM,1.02 ± 0.32
same,surviving fraction,[9]; 1000 nM,0.951 ± 0.32
same,area under dose-response curve,CELECOXIB [10],2.98
same,area under dose-response curve,GEFITINIB [11],3.01
same,area under dose-response curve,[12],1.69
same,area under dose-response curve,CARBOPLATIN [13],3.22
same,area under dose-response curve,PACLITAXEL [14],0.884
same,area under dose-response curve,YM155 [15],1.66
same,area under dose-response curve,CAMPTOTHECIN [16],0.671
same,area under dose-response curve,OSI-906 [17],2.23
same,area under dose-response curve,[18],3.51
